Assay results taken from the supplement of paper PMC10307832.

Columns and labels:
Experiment in all cases: relative viability (nuclei count vs DMSO), 5 days (fraction); higher = more cells survive
Serdemetan + Crizotinib = compound: c1ccc2c(CCNc3ccc(Nc4ccncc4)cc3)c[nH]c2c1 [Serdemetan] + C[C@@H](Oc1cc(-c2cnn(C3CCNCC3)c2)cnc1N)c1c(Cl)ccc(F)c1Cl [Crizotinib] (partner 1 µM)
Method in brief: (§1)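 Medians of duplicate plates are given as relative viability. That measure is the nuclei count in treated wells divided by the count in vehicle wells. Counts were taken on 4× images of lung cancer cell lines in 1536-well plates, 5 days after pin-tool dosing the day after seeding with one drug alone or a fixed anchor-drug dose plus five library-drug doses (not always all listed) in √10 steps.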

Selisistat + Palbociclib = compound: C1CC(C2=C(C1)C3=C(N2)C=CC(=C3)Cl)C(=O)N [Selisistat] + CC(=O)c1c(C)c2cnc(Nc3ccc(N4CCNCC4)cn3)nc2n(C2CCCC2)c1=O [Palbociclib] (partner 0.5 µM)
Method in brief: as §1

Selisistat + Linsitinib = compound: C1CC(C2=C(C1)C3=C(N2)C=CC(=C3)Cl)C(=O)N [Selisistat] + C[C@]1(O)C[C@@H](c2nc(-c3ccc4ccc(-c5ccccc5)nc4c3)c3c(N)nccn32)C1 [Linsitinib] (partner 1 µM)
Method in brief: as §1

Selisistat + Olaparib = compound: C1CC(C2=C(C1)C3=C(N2)C=CC(=C3)Cl)C(=O)N [Selisistat] + O=C(c1cc(Cc2n[nH]c(=O)c3ccccc23)ccc1F)N1CCN(C(=O)C2CC2)CC1 [Olaparib] (partner 8 µM)
Method in brief: as §1

UMC-11
relative viability (Serdemetan + Crizotinib; first compound 0.04 µM): 0.661
relative viability (Serdemetan + Crizotinib; first compound 0.1265 µM): 0.591
relative viability (Serdemetan + Crizotinib; first compound 0.4 µM): 0.577
relative viability (Serdemetan + Crizotinib; first compound 1.265 µM): 0.482
relative viability (Serdemetan + Crizotinib; first compound 4 µM): 0.358
relative viability (Selisistat + Palbociclib; first compound 0.4 µM): 0.348
relative viability (Selisistat + Palbociclib; first compound 1.265 µM): 0.34
relative viability (Selisistat + Palbociclib; first compound 4 µM): 0.299
relative viability (Selisistat + Palbociclib; first compound 12.65 µM): 0.319
relative viability (Selisistat + Palbociclib; first compound 40 µM): 0.349
relative viability (Selisistat + Linsitinib; first compound 0.4 µM): 0.962
relative viability (Selisistat + Linsitinib; first compound 1.265 µM): 0.935
relative viability (Selisistat + Linsitinib; first compound 4 µM): 1.06
relative viability (Selisistat + Linsitinib; first compound 12.65 µM): 0.948
relative viability (Selisistat + Linsitinib; first compound 40 µM): 1.03
relative viability (Selisistat + Olaparib; first compound 0.4 µM): 0.331
relative viability (Selisistat + Olaparib; first compound 1.265 µM): 0.356
relative viability (Selisistat + Olaparib; first compound 4 µM): 0.271
relative viability (Selisistat + Olaparib; first compound 12.65 µM): 0.334
relative viability (Selisistat + Olaparib; first compound 40 µM): 0.353
